PMC4138887, “Natural Product Polyamines That Inhibit Human Carbonic Anhydrases” (BioMed Research International, 2014)
Values after ≈ are worked out from the molar mass of the structure shown.

Columns and labels:
hCA I = target: T1, hCA I (Homo sapiens, UniProt P00915); test: stopped-flow CO2 hydration CA inhibition assay; format: biochemical; conditions: recombinant human CA I; stopped-flow CO2 hydrase assay; errors ±5%, three determinations; read-out: K i CA I
T1 construct: made in house; host or cells: E. coli
T1 sequence (P00915 whole entry): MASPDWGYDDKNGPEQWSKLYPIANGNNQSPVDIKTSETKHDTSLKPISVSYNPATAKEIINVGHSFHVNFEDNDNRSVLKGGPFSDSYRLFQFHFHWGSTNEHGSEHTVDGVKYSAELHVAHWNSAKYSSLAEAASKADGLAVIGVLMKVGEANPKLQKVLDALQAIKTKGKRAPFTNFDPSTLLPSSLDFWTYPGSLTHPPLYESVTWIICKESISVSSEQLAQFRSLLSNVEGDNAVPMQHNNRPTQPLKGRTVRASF
Description: (§1) An Applied Photophysics stopped-flow instrument was used for assaying the CA-catalyzed CO2 hydration activity [26]. IC50 values were obtained from dose response curves working at seven different concentrations of test compound; by fitting the curves using PRISM (http://www.graphpad.com/) and nonlinear least squares methods, values represent the mean of at least three different determinations as described by us previously [27]. The inhibition constants (K i) were then derived by using the Cheng-Prusoff equation [28] as follows: K i = IC50/(1 + [S]/K m), where [S] represents the CO2 concentration at which the measurement was carried out and K m is the concentration of substrate at which the enzyme activity is at half maximal. All enzymes used were recombinant, produced in E. coli as reported earlier [29, 30].

hCA II = target: T2, hCA II (Homo sapiens, UniProt P00918); test: stopped-flow CO2 hydration CA inhibition assay; format: biochemical; conditions: recombinant human CA II; stopped-flow CO2 hydrase assay; errors ±5%, three determinations; read-out: K i CA II
T2 construct: made in house; host or cells: E. coli
Description: as §1

hCA IV = target: T3, hCA IV (Homo sapiens, UniProt P22748); test: stopped-flow CO2 hydration CA inhibition assay; format: biochemical; conditions: recombinant human CA IV; stopped-flow CO2 hydrase assay; errors ±5%, three determinations; read-out: K i CA IV
T3 construct: made in house; host or cells: E. coli
T3 sequence (P22748 19-312): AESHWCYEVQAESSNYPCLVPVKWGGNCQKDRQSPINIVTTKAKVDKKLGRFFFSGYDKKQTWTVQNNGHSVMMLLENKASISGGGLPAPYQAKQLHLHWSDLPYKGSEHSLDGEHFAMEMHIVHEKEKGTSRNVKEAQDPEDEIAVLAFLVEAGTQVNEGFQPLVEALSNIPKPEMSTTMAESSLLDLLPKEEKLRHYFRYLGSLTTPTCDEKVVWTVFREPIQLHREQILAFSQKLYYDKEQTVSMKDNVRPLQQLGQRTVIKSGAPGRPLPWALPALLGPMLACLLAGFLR
Description: as §1

hCA IX = target: T4, hCA IX (Homo sapiens, UniProt Q16790); test: stopped-flow CO2 hydration CA inhibition assay; format: biochemical; conditions: recombinant human CA IX; stopped-flow CO2 hydrase assay; errors ±5%, three determinations; read-out: K i CA IX
T4 construct: made in house; host or cells: E. coli
Description: as §1

hCA XII = target: T5, hCA XII (Homo sapiens, UniProt O43570); test: stopped-flow CO2 hydration CA inhibition assay; format: biochemical; conditions: recombinant human CA XII; stopped-flow CO2 hydrase assay; errors ±5%, three determinations; read-out: K i CA XII
T5 construct: made in house; host or cells: E. coli
T5 sequence (O43570 25-354): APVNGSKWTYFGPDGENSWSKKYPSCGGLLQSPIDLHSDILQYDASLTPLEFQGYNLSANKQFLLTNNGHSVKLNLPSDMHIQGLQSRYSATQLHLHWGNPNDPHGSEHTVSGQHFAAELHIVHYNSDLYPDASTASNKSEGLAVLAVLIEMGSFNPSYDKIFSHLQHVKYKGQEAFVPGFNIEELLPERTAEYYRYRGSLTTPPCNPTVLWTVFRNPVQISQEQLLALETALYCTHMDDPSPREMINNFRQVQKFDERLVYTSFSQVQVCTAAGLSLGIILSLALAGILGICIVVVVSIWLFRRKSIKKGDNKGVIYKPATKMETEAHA
Description: as §1

hCA XIV = target: T6, hCA XIV (Homo sapiens, UniProt Q9ULX7); test: stopped-flow CO2 hydration CA inhibition assay; format: biochemical; conditions: recombinant human CA XIV; stopped-flow CO2 hydrase assay; errors ±5%, three determinations; read-out: K i CA XIV
T6 construct: made in house; host or cells: E. coli
T6 sequence (Q9ULX7 16-337): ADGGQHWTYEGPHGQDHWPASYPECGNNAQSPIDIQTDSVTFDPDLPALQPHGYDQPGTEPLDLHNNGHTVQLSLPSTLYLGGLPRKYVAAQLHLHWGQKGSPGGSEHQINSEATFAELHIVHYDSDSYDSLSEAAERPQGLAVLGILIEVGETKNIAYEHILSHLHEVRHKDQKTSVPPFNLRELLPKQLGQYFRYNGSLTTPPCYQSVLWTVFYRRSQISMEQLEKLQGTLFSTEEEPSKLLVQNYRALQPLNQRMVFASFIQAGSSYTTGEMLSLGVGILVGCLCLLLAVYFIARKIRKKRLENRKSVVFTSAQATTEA
Description: An Applied Photophysics stopped-flow instrument was used for assaying the CA-catalyzed CO2 hydration activity [26]. IC50 values were obtained from dose response curves working at seven different concentrations of test compound; by fitting the curves using PRISM (http://www.graphpad.com/) and nonlinear least squares methods, values represent the mean of at least three different determinations as described by us previously [27]. The inhibition constants (K i) were then derived by using the Cheng-Prusoff equation [28] as follows: K i = IC50/(1 + [S]/K m), where [S] represents the CO2 concentration at which the measurement was carried out and K m is the concentration of substrate at which the enzyme activity is at half maximal.

Pseudomonas aeruginosa = system: Pseudomonas aeruginosa; set-up: method as in PMID 22515429; conditions: antibacterial, cited from earlier work
[1] = system: drug sensitive Plasmodium falciparum parasite line (3D7); set-up: method as in earlier work; conditions: drug sensitive parasite line 3D7; read-out: IC50 towards Plasmodium falciparum 3D7; cited from earlier work

Row | Compound | Ki (hCA I) | Ki (hCA II) | Ki (hCA IV) | Ki (hCA IX) | Ki (hCA XII) | Ki (hCA XIV) | MIC against Pseudomonas aeruginosa (Pseudomonas aeruginosa) | IC50 (Pseudomonas aeruginosa; read-out: IC50 against Pseudomonas aeruginosa) | IC50 [1]
1 | COc1c(Br)cc(/C=C/C(=O)NCCCNCCCCN)cc1Br [Polyamine 2, ianthelliformisamine B] | 770 nM | 370 nM | 9100 nM | 350 nM | 3480 nM | 2280 nM |  |  | 
2 | O=C(NCCCCNCCCNC(=O)c1ccc(O)c(O)c1)c1ccc(O)c(O)c1 [Polyamine 5, pistillarin] | 790 nM | 340 nM | 7030 nM | 360 nM | 4210 nM | 1520 nM |  |  | 1900 nM
3 | spermatinamine [Polyamine 4] | 850 nM | 480 nM | > 20000 nM | 340 nM | > 20000 nM | 2720 nM |  |  | 230 nM

More lines, main results first:

Row | Ki (hCA I) | Ki (hCA II) | Ki (hCA IV) | Ki (hCA IX) | Ki (hCA XII) | Ki (hCA XIV) | Compound | MIC against Pseudomonas aeruginosa (Pseudomonas aeruginosa) | IC50 (Pseudomonas aeruginosa; read-out: IC50 against Pseudomonas aeruginosa) | IC50 [1]
4 | 1760 nM | 410 nM | 6720 nM | 200 nM | 2810 nM | 2120 nM | COc1c(Br)cc(/C=C/C(=O)NCCCNCCCCNCCCN)cc1Br [Polyamine 1, ianthelliformisamine A] | 35 µM (≈ 18.2 µg/mL) | 6800 nM | 
5 | 860 nM | 350 nM | 9080 nM | 270 nM | 3500 nM | 6960 nM | COc1c(Br)cc(/C=C/C(=O)NCCCNCCCCNCCCNC(=O)/C=C/c2cc(Br)c(OC)c(Br)c2)cc1Br [Polyamine 3, ianthelliformisamine C] |  |  | 
